Patent publication US9839618B2, “Compositions and methods relating to proliferative diseases” (The Penn State Research Foundation, priority 2010, dated 2017)
Read-outs that look alike come from different tables or passages of the source.

Assays:
[1] = tested on: Fibrosarcoma (HT-1080) cancer cell line; assay: MTS assay viability IC50, HT-1080; type: cell-based; conditions: Homo sapiens, Table 5, read-out: IC50 Fibro Sarcoma (HT-1080)
Protocol: (§1) Dehydroabietylamine, its N-substituted derivatives and the corresponding dihydroabietylamine and its N-substituted derivatives are tested for their capability to inhibit cell growth of cancer cell lines, including melanoma (UACC 903, 1205Lu), breast (MCF-7), fibrosarcoma (HT-1080), colon (Caco-2), and prostate (PC-3) cancer cell lines. Viability and IC50 of normal human fibroblasts and cell lines from melanoma and other malignancies following treatment with all the agents are measured using the MTS assay (Promega, Madison, Wis.). Human fibroblast FF2441 cells, metastatic melanoma cell lines 1205 Lu and UACC 903 as well as cancer cell lines representing sarcoma (HT-1080), prostate (PC-3, LNCaP), breast (MCF-7) and lung (A-549) are maintained in DMEM (Invitrogen, Carlsbad, Calif.) supplemented with 10% FBS (Hyclone, Logan, Utah) in a 5% CO2 atmosphere, humidified 37° C. incubator. 5×10^3 cells per well in 100 μL of media are plated and grown in a 96-well plate for 48 to 72 h and treated with either DMSO vehicle control or 0.62 to 40 μmol/L for 24, 48 or 72 h. IC50 values for each compound in […] for respective cell lines are measured from three independent experiments using GraphPad Prism version 4.01 (GraphPad Software, La Jolla, Calif.). FIG. 52 is a graph showing IC50 values for leelamine and compounds 4a, 4b and 5a in treated fibroblasts (FF2441) compared to melanoma cells. Selectivity ratio here is defined as ratio of activity against fibroblasts compared to activity against melanoma cells. Leelamine is relatively selective with a ratio of >6 and >4 for UACC903 and 1205Lu melanoma cells. The selectivity ratio of compound 4a is ˜4 and ˜3 for UACC903 and 1205Lu and for compound 4b is ˜4 for both cell lines. The selectivity ratio of compound 5a is ˜4 for UACC903 and >2 for 1205Lu cells.

[2] = tested on: Prostate (PC-3) cancer cell line; assay: MTS assay viability IC50, PC-3; type: cell-based; conditions: Table 5
Protocol: as §1

[3] = tested on: UACC 903 metastatic melanoma cells; assay: MTS assay viability IC50, UACC 903; type: cell-based, human; conditions: for IC50: Homo sapiens, UACC-903; for Selectivity ratio, fibroblasts versus UACC903: activity against fibroblasts FF2441 compared to melanoma cells
Protocol: The efficacy of leelamine to kill other cancer types is measured and the IC50 for cell lines derived from carcinomas of breast, lung, prostate, connective tissue, pancreas and colon determined. The MTS assay as described in Sharma, A. et al., Clin Cancer Res, 2009, 15:1674-85; and Madhunapantula, S. V. et al., Mol Cancer Ther, 2008, 7:1297-308 is used to establish the IC50 at 24, 48 and 72 hours of leelamine treatment for normal human epidermal melanocytes (FOM103), normal skin fibroblast cells (FF2441), normal skin keratinocytes (HFK) and compared to melanocytic lesion cells from the radial-, vertical- and metastatic melanoma stages. 5×10^3 cells per well in 100 μL of media are plated and grown in a 96-well plate for 48 to 72 hours and treated with either DMSO vehicle control or 0.62 to 40 μmol/L of leelamine for 24, 48 or 72 hours. IC50 values for each compound in μmol/L for respective cell lines are measured from three independent experiments using GraphPad Prism version 4.01 (GraphPad Software, La Jolla, Calif.). Leelamine is found to be not toxic to normal cells and effective to kill melanoma cells as well as non-melanoma cancer cells as shown in Table 1 in FIG. 20. Leelamine is 3- to 4-fold more specific at killing metastatic melanoma than normal cells, supporting cancer therapeutic utility at concentrations<2 μmol/L.
5×10^3 cells per well in 100 μL of media are plated and grown in a 96-well plate for 48 to 72 hours and treated with either DMSO vehicle control or 0.62 to 40 μmol/L of leelamine for 24, 48 or 72 hours. IC50 values for each compound in μmol/L for respective cell lines are measured from three independent experiments using GraphPad Prism version 4.01 (GraphPad Software, La Jolla, Calif.).
The IC50 and effect of liposomal preparations of leelamine on viability of normal human melanocytes, fibroblasts and melanoma cells UACC 903 and 1205 Lu are measured using the MTS assay (Promega, Madison, Wis.). Empty liposomes or liposomes containing abietic acid are used as controls. 5×10^3 cells per well in 100 μL of media are plated and grown in a 96-well plate for 48 or 72 hours for melanoma and normal cell lines, respectively. The cells are then treated with 0.62 to 40 μmol/L of liposome alone, a liposomal preparation of abietic acid, or with Nanolipolee-007 for 24 hours. IC50 values for each liposome in μmol/L for respective cell lines are measured from three independent experiments using GraphPad Prism version 4.01 (GraphPad Software, La Jolla, Calif.). Nanolipolee-007 retains the growth inhibitory activity of leelamine in killing melanoma cells in culture and specifically kills melanoma cells compared to normal cells, FIG. 24.
as §1, with “FIG. 52 is a graph showing IC50 values for leelamine and compounds 4a, 4b and 5a in treated fibroblasts (FF2441) compared to melanoma cells. Selectivity ratio here is defined as ratio of activity against fibroblasts compared to activity against melanoma cells. Leelamine is relatively selective with a ratio of >6 and >4 for UACC903 and 1205Lu melanoma cells. The selectivity ratio of compound 4a is ˜4 and ˜3 for UACC903 and 1205Lu and for compound 4b is ˜4 for both cell lines. The selectivity ratio of compound 5a is ˜4 for UACC903 and >2 for 1205Lu cells.” left out

[4] = tested on: Prostate (LnCap) cancer cell line; assay: MTS assay viability IC50, LnCap; type: cell-based; conditions: Homo sapiens, Table 5
Protocol: as §1

[5] = Table 4, read-out: IC50 Metastatic Melanoma Cell line UACC903
[6] = Table 5, read-out: IC50 Melanoma (UACC903)
[7] = Table 6, read-out: IC50 Metastatic melanoma UACC 903
[8] = Table 7, read-out: IC50 (UACC903)

Row | IC50 [1] | IC50 [2] | IC50 [3, 5] | IC50 [3, 6] | IC50 [3, 7] | IC50 [3, 8] | IC50 [4] | IC50 ([3]; Example 8, read-out: IC50 UACC 903) | SMILES | Selectivity ratio, fibroblasts versus UACC903 [3]
1 | > 100 µM | > 100 µM | > 100 µM | > 100 µM | > 100 µM | > 100 µM | > 100 µM |  | CC(C)C1=CC2=CCC3[C@](C)(CCC[C@@]3(C)C(=O)O)C2CC1 (stereo partly drawn) [Abietic acid, (1R,4aR)-1,4a-dimethyl-7-(propan-2-yl)-1,2,3,4,4a,4b,5,6,10,10a-decahydrophenanthrene-1-carboxylic acid, reference compound] | 
2 | 6.29 ± 1.1 µM | 9.73 ± 1.04 µM | 2.13 ± 0.19 µM | 2.36 ± 0.25 µM | 2.13 ± 0.19 µM | 2.13 µM | 14.8 ± 1.99 µM | 2.13 µM | CC(C)C1=CC2=CCC3[C@](C)(CN)CCC[C@]3(C)C2CC1 (stereo partly drawn) [Compound 4a, {[(1R,4aR)-1,4a-dimethyl-7-(propan-2-yl)-1,2,3,4,4a,4b,5,6,10,10a-decahydrophenanthren-1-yl]methyl}amine] | ~4
3 | 3.73 ± 0.54 µM | 4.66 ± 0.55 µM | 1.28 ± 0.05 µM | 1.28 ± 0.05 µM | 1.28 ± 0.05 µM | 1.28 µM | 8.63 ± 0.97 µM |  | CC(C)c1ccc2c(c1)CCC1[C@](C)(CNC(=O)C(F)(F)F)CCC[C@]21C (stereo partly drawn) [Compound 5a, N-{[(1R,4aS)-1,4a-dimethyl-7-(propan-2-yl)-1,2,3,4,4a,9,10,10a-octahydrophenanthren-1-yl]methyl}-2,2,2-trifluoroacetamide] | ~4
4 | 3.75 ± 0.54 µM | 4.85 ± 1.09 µM |  | 1.35 ± 0.5 µM | 1.35 ± 0.05 µM | 1.35 µM | 10.9 ± 2.11 µM |  | CC(C)c1ccc2c(c1)CCC1[C@](C)(CN)CCC[C@]21C (stereo partly drawn) [Leelamine, [(1R,4aS)-1,4a-dimethyl-7-(propan-2-yl)-1,2,3,4,4a,9,10,10a-octahydrophenanthren-1-yl]methanamine] | > 6
